Laboratory results published in patent US11497757B2, “Silanol based therapeutic payloads” (BlinkBio, Inc., priority 2016, dated 2022).

Assays:
KB cells = assay: CellTiter-Glo cell viability, washout protocol; type: cell-based; settings: for EC50: washout protocol: 2 h incubation, wash, additional 70 h, siloxane based conjugates; for % Kill (48 h): washout protocol
Description: Washout protocol: KB cells in culture were seeded in white clear bottom 96-well tissue culture plate at a density of 5,000 cells per well in a folate free RPMI media with 10% FBS a day prior to compound addition. Cells were counted visually with a hemocytometer and diluted accordingly to obtain the desired density. Cells were allowed to incubate for 24 hours in a humidified CO2 atmosphere in an incubator at 37° C. The spent media was aspirated and replenished with 100 μL of fresh media containing a 3-fold serial dilution of compound with concentrations ranging from 0.3 to 2000 nM and with a final DMSO concentration of 0.1%. Blank wells without compound were also treated with media containing 0.1% DMSO. […] […] At the end of 70 h, the spent media was removed and cells were washed once with fresh media and then suspended 100 μL of PBS. 100 μL of constituted Cell titer-glo reagent was added to each well and luminescence was recorded with a VICTOR plate reader according to manufacturers' protocol.

[1] = tested on: Folate receptor alpha expressing KB cells; assay: Confocal imaging study demonstrating endocytosis and Si-O cleavage; type: cell-based; settings: 50 nM
Description: Example 51 as shown above contains a folate receptor targeting ligand, a spacer moiety, a siloxane core and two different fluorescent dyes (BODIPY and rhodamine) positioned on either side of the siloxane core. Folate receptor alpha expressing KB cells were grown in folic acid free media. The cells were incubated for 30 minutes on ice with 50 nM of Example 51, washed with fresh culture medium and then incubated in media at 37° C. for the desired length of time. The fate of both dyes was simultaneously monitored using confocal microscopy using Zeiss LSM 780 laser scanning microscope.

SMILES | EC50 (KB cells) [nM] | % Kill (48 h) (KB cells) [%] | Folate receptor binding on cell surface (colocalization of dyes) ([1]; t=0) | Cleavage of the siloxane core (color separation of the two dyes) ([1]; t=30 min, 37° C.) | Endocytosis of intact conjugate into the cell ([1]; t=30 min, 37° C.)
CC[C@]1(O)C[C@@H]2C[N@@](CCc3c([nH]c4ccccc34)[C@@](C(=O)OC)(c3cc4c(cc3OC)N(C)[C@H]3[C@@](O)(C(=O)NCCC[Si](C)(C)O[Si](C)(C)CSc5ncc(Cn6cc(COCCOCCOCCOCCOCCOCCNC(=O)CC[C@H](NC(=O)c7ccc(NCc8cnc9nc(N)[nH]c(=O)c9n8)cc7)C(=O)O)nn6)cn5)[C@H](O)[C@]5(CC)C=CCN6CC[C@]43[C@@H]65)C2)C1 [Example 24] | ~265 | 84 | – | – | –
CC[C@]1(O)C[C@@H]2CN(CCc3c([nH]c4ccccc34)[C@@](C(=O)OC)(c3cc4c(cc3OC)N(C)[C@H]3[C@@](O)(C(=O)NCCC[Si](C)(C)O[Si](C)(C)CSc5ncc(Cn6cc(C[C@H](NC(=O)[C@H](CC(=O)O)NC(=O)[C@H](CC(=O)O)NC(=O)[C@H](CCCNC(=N)N)NC(=O)[C@H](CC(=O)O)NC(=O)CC[C@H](NC(=O)c7ccc(NCc8cnc9nc(N)[nH]c(=O)c9n8)cc7)C(=O)O)C(=O)O)nn6)cn5)[C@H](O)[C@]5(CC)C=CCN6CC[C@]43[C@@H]65)C2)C1 [Example 28] | ~156 | 86 | – | – | –
CC[C@H](C)[C@@H]([C@@H](CC(=O)N1CCC[C@H]1[C@H](OC)[C@@H](C)C(=O)N[C@@H](Cc1ccccc1)C(=O)O)OC)N(C)C(=O)[C@@H](NC(=O)[C@H](C(C)C)N(C)C(=O)CCC[Si](C)(C)O[Si](C)(C)c1cccc(CC(=O)NCCOCCOCCOCCOCCOCCn2cc(COCC(COCc3cn(CCOCCOCCOCCOCCOCCNC(=O)Cc4cccc([Si](C)(C)O[Si](C)(C)CCCC(=O)N(C)[C@H](C(=O)N[C@H](C(=O)N(C)[C@@H]([C@@H](C)CC)[C@@H](CC(=O)N5CCC[C@H]5[C@H](OC)[C@@H](C)C(=O)N[C@@H](Cc5ccccc5)C(=O)O)OC)C(C)C)C(C)C)c4)nn3)(COCc3cn(CCOCCOCCOCCOCCOCCNC(=O)Cc4cccc([Si](C)(C)O[Si](C)(C)CCCC(=O)N(C)[C@H](C(=O)N[C@H](C(=O)N(C)[C@@H]([C@@H](C)CC)[C@@H](CC(=O)N5CCC[C@H]5[C@H](OC)[C@@H](C)C(=O)N[C@@H](Cc5ccccc5)C(=O)O)OC)C(C)C)C(C)C)c4)nn3)NC(=O)CCOCCOCCOCCOCCOCCOCCNC(=O)CC[C@H](NC(=O)c3ccc(NCc4cnc5nc(N)[nH]c(=O)c5n4)cc3)C(=O)O)nn2)c1)C(C)C [Example 35, Folate-PEG-Adaptor-PhenylSiLinker-TripleAuristatin] | ~8 | – | – | – | –
CCN(CC)c1ccc2c(-c3ccc(S(=O)(=O)NCc4cnc(SC[Si](C)(C)O[Si](C)(C)CCCN5C(=O)CC(SC[C@H](NC(=O)[C@H](CNC(=O)CCC6=[N+]7C(=Cc8c(C)cc(C)n8[B-]7(F)F)C=C6)NC(=O)[C@H](CC(=O)O)NC(=O)CC[C@H](NC(=O)c6ccc(NCc7cnc8nc(N)[nH]c(=O)c8n7)cc6)C(=O)O)C(=O)O)C5=O)nc4)cc3S(=O)(=O)[O-])c3ccc(=[N+](CC)CC)cc-3oc2c1 (some centres unmarked) [Example 51] | – | – | bound to the folate receptor on the cell surface | cleavage of the siloxane core was observed | endocytosis of intact Example 51 into the cell was observed
